Measurements reported in publication PMC12332157, “A preclinical study on the influence of linkers in [^68Ga]Ga-NOTA-X-RM26 radiotracers for PET imaging of GRPR expression” (EJNMMI Research, 2025).
Read-outs that look alike come from different tables or passages of the source. Starred links: 1 amine or outer side, 2 acyl side, 3 side chain; linkers in the order of their positions; H or OH if unused. Non-standard residues stand in square brackets, D forms with d. Residues, ends and D or L forms follow the SMILES beside them. *: point of attachment. NOTA = O=C(O)CN1CCN(CC(=O)O)CCN(CC(=O)*)CC1; Sta = CC(C)C[C@H](N)[C@@H](O)CC(=O)O; X2 = O=C(COc1cccc(CN[*:1])c1)[*:2]; X1 = O=C(Cc1ccccc1CCN[*:1])[*:2]

Experiments:
[1] = design: method as in PMID 25684649; conditions: same time point (2 h), 40 pmol; cited from earlier work
[2] = Octanol-water distribution coefficient (LogD); assay type: physicochemical; conditions: n-octanol/PBS; n = 3; mean ± sd
Procedure: Octanol-water distribution coefficient (LogD) was determined by adding 10 pmol of radiopeptide to an Eppendorf tube containing 500 µL of phosphate-buffered saline (PBS) and 500 µL of n-octanol. Each tube was vortexed for 2 min and centrifuged at 6000 g for 5 min. Three 100 µL fractions were collected from each phase, and their radioactivity was measured.

[3] = Biodistribution in BALB/c nu/nu mice bearing PC-3 xenografts; assay type: in vivo; conditions: female, BALB/c nu/nu, mouse, iv, total radioactivity
Procedure: Female BALB/c nu/nu mice of 18–22 g weight were used in the study. All procedures with animals were conducted in accordance with the EU Directive 2010/63/EU for animal experiments and Swedish national legislation concerning the protection of laboratory animals. The experiments were approved by the ethics committee for animal research in Uppsala (Sweden) with permit number 5.8.18–00473/2021. Animals were housed in individually ventilated cages, under a 12-h light/dark cycle with free access to food and water.
For tumor inoculation, 8·10^6 PC-3 cells in 100 µL PBS were injected subcutaneously into the right hind leg of mice. Mouse weight and tumor size were measured every 2–3 days, and tumor volume was estimated by ellipsoid approximation. A predefined humane endpoint of the experiment was either a 15% weight loss or a tumor volume of 1000 mm^3, neither of which was reached.
Four weeks after tumor cell implantation, mice were randomized and divided into 6 groups (4 animals / group): 3 of them received treatment with ^68Ga-radiolabeled peptides, while the other 3 received the same peptides in addition to 5 nmol of non-labeled NOTA-PEG2-RM26 peptide for GRPR-blocking. Peptides were injected intravenously via the tail veins at a dose of 50 pmol (700 kBq radioactivity dose).
At 2 h post injection, mice were sacrificed by overdose of Ketamine/Xylazine anesthesia, and blood was collected by heart puncture. Then, liver, spleen, lungs, pancreas, kidneys, small intestine, stomach, tail, femur bones, tumor and muscle from the opposite legs were collected, weighed, and radioactivity was measured using a Wizard 2480 gamma counter. Data are presented as percentages of injected activity per gram of tissue (%IA/g).

[4] = Complex stability of 68Ga-labeled peptides in PBS or EDTA solution in PBS (iTLC); assay type: physicochemical; conditions: n = 3, mean ± sd; for remaining at 1 h, 1 µM: PBS buffer, pH 7.4, incubation at 37 °C for 1 h in PBS; for Stability in PBS with EDTA: incubation at 37 °C for 1 h in PBS with 1000-fold molar excess of EDTA, in % (unit assumed)
[5] = blood, 50 pmol, 2 h p.i., i.v., read-out: Radionuclide concentration, Blood
[6] = blood, Blockade (co-injection of NOTA-PEG2-RM26), 2 h, read-out: Radionuclide concentration, Blood
[7] = bone, 50 pmol, 2 h p.i., i.v., read-out: Radionuclide concentration, Bone
[8] = bone, Blockade (co-injection of NOTA-PEG2-RM26), 2 h, read-out: Radionuclide concentration, Bone
[9] = carcass, 50 pmol, 2 h p.i., i.v., read-out: Radionuclide quantity, Carcass
[10] = carcass, Blockade (co-injection of NOTA-PEG2-RM26), 2 h, read-out: Radionuclide quantity, Carcass
[11] = gastrointestinal tract, 50 pmol, 2 h p.i., i.v., read-out: Radionuclide quantity, Gastrointestinal tract
[12] = gastrointestinal tract, Blockade (co-injection of NOTA-PEG2-RM26), 2 h, read-out: Radionuclide quantity, Gastrointestinal tract
[13] = kidneys, 50 pmol, 2 h p.i., i.v., read-out: Radionuclide concentration, Kidneys
[14] = kidneys, Blockade (co-injection of NOTA-PEG2-RM26), 2 h, read-out: Radionuclide concentration, Kidneys
[15] = liver, 50 pmol, 2 h p.i., i.v., read-out: Radionuclide concentration, Liver
[16] = liver, Blockade (co-injection of NOTA-PEG2-RM26), 2 h, read-out: Radionuclide concentration, Liver
[17] = lungs, 50 pmol, 2 h p.i., i.v., read-out: Radionuclide concentration, Lungs
[18] = lungs, Blockade (co-injection of NOTA-PEG2-RM26), 2 h, read-out: Radionuclide concentration, Lungs
[19] = muscle, 50 pmol, 2 h p.i., i.v., read-out: Radionuclide concentration, Muscle
[20] = muscle, Blockade (co-injection of NOTA-PEG2-RM26), 2 h, read-out: Radionuclide concentration, Muscle
[21] = pancreas, 50 pmol, 2 h p.i., i.v., read-out: Radionuclide concentration, Pancreas
[22] = pancreas, Blockade (co-injection of NOTA-PEG2-RM26), 2 h, read-out: Radionuclide concentration, Pancreas
[23] = small intestine, 50 pmol, 2 h p.i., i.v., read-out: Radionuclide concentration, Small Intestines
[24] = small intestine, Blockade (co-injection of NOTA-PEG2-RM26), 2 h, read-out: Radionuclide concentration, Small Intestines
[25] = spleen, 50 pmol, 2 h p.i., i.v., read-out: Radionuclide concentration, Spleen
[26] = spleen, Blockade (co-injection of NOTA-PEG2-RM26), 2 h, read-out: Radionuclide concentration, Spleen
[27] = stomach, 50 pmol, 2 h p.i., i.v., read-out: Radionuclide concentration, Stomach
[28] = stomach, Blockade (co-injection of NOTA-PEG2-RM26), 2 h, read-out: Radionuclide concentration, Stomach
[29] = total (sum of the measured activities), 50 pmol, 2 h p.i., i.v., sum of the measured activities, read-out: Radionuclide quantity, Total
[30] = total, Blockade (co-injection of NOTA-PEG2-RM26), 2 h, read-out: Radionuclide quantity, Total
[31] = tumor (PC-3 xenograft), 50 pmol, 2 h p.i., i.v., PC-3 xenograft, read-out: Radionuclide concentration, Tumor
[32] = tumor (PC-3 xenograft), Blockade (co-injection of NOTA-PEG2-RM26), 2 h, read-out: Radionuclide concentration, Tumor

Row | SMILES | logD [2] | tissue uptake at 2 h [3, 5] | tissue uptake at 2 h [3, 6] | tissue uptake at 2 h [3, 7] | tissue uptake at 2 h [3, 8] | tissue uptake dose at 2 h [3, 9] | tissue uptake dose at 2 h [3, 10] | tissue uptake dose at 2 h [3, 11] | tissue uptake dose at 2 h [3, 12] | tissue uptake at 2 h [3, 13] | tissue uptake at 2 h [3, 14] | tissue uptake at 2 h [3, 15] | tissue uptake at 2 h [3, 16] | tissue uptake at 2 h [3, 17] | tissue uptake at 2 h [3, 18] | tissue uptake at 2 h [3, 19] | tissue uptake at 2 h [3, 20] | tissue uptake at 2 h [3, 21] | tissue uptake at 2 h [3, 22] | tissue uptake at 2 h [3, 23] | other results
1 | CC(C)C[C@H](NC(=O)C[C@H](O)[C@H](CC(C)C)NC(=O)[C@H](Cc1c[nH]cn1)NC(=O)CNC(=O)[C@@H](NC(=O)[C@H](C)NC(=O)[C@H](Cc1c[nH]c2ccccc12)NC(=O)[C@H](CCC(N)=O)NC(=O)[C@@H](Cc1ccccc1)NC(=O)COCCOCCNC(=O)CN1CCN(CC(=O)O)CCN(CC(=O)O)CC1)C(C)C)C(N)=O [[^68Ga]Ga-NOTA-PEG2-RM26, metal not drawn] | -1.43 ± 0.01 | – | – | – | – | – | – | – | – | – | – | – | – | – | – | – | – | – | – | – | accumulation in the kidneys [1]: 1.9 ± 0.3 %IA/g; accumulation in the liver [1]: 1 ± 0.1 %IA/g; accumulation in the lungs [1]: 0.17 ± 0.03 %IA/g; tissue uptake, pancreas [1]: 1.9 ± 0.1 %IA/g; tissue uptake, small intestine [1]: 0.6 ± 0.1 %IA/g; tissue uptake, stomach [1]: 1.4 ± 0.2 %IA/g; tissue uptake, tumor [1]: 5.4 ± 1 %IA/g
2 | CC(=O)N[C@@H](CCCCNC(=O)CN1CCN(CC(=O)O)CCN(CC(=O)O)CC1)C(=O)NCc1cccc(OCC(=O)N[C@H](Cc2ccccc2)C(=O)N[C@@H](CCC(N)=O)C(=O)N[C@@H](Cc2c[nH]c3ccccc23)C(=O)N[C@@H](C)C(=O)N[C@H](C(=O)NCC(=O)N[C@@H](Cc2c[nH]cn2)C(=O)N[C@@H](CC(C)C)[C@@H](O)CC(=O)N[C@@H](CC(C)C)C(N)=O)C(C)C)c1 [[^68Ga]Ga-NOTA-mMA-RM26, metal not drawn] (Ac-K(NOTA)[X2][dF]QWAVGH[Sta]L-NH2) | -1.21 ± 0.03 | 0.39 ± 0.08 %ID/g | 0.42 ± 0.21 %ID/g | 0.28 ± 0.06 %ID/g | 0.25 ± 0.03 %ID/g | 2.8 ± 0.4 %ID | 4.6 ± 0.7 %ID | 4 ± 0.4 %ID | 3.1 ± 1.7 %ID | 8.4 ± 1.4 %ID/g | 7.6 ± 0.7 %ID/g | 3.7 ± 1.4 %ID/g | 2.2 ± 0.5 %ID/g | 7.1 ± 4.2 %ID/g | 3.4 ± 0.5 %ID/g | 0.12 ± 0.02 %ID/g | 0.12 ± 0.05 %ID/g | 10.5 ± 3.8 %ID/g | 1.7 ± 0.9 %ID/g | 1.7 ± 0.7 %ID/g | tissue uptake at 2 h [3, 24]: 0.91 ± 0.48 %ID/g; tissue uptake at 2 h [3, 25]: 1.1 ± 0.4 %ID/g; tissue uptake at 2 h [3, 26]: 1.1 ± 0.8 %ID/g; tissue uptake at 2 h [3, 27]: 2.5 ± 0.6 %ID/g; tissue uptake at 2 h [3, 28]: 0.77 ± 0.51 %ID/g; tissue uptake dose at 2 h [3, 29]: 16.5 ± 3.1 %ID; tissue uptake dose at 2 h [3, 30]: 12.6 ± 2 %ID; tissue uptake at 2 h [3, 31]: 12.3 ± 2.8 %ID/g; tissue uptake at 2 h [3, 32]: 1.8 ± 0.2 %ID/g; remaining at 1 h, 1 µM [4]: 92.8 ± 3.3%; Stability in PBS with EDTA [4]: 90.6 ± 4.1
3 | CC(=O)N[C@@H](CCCCNC(=O)CN1CCN(CC(=O)O)CCN(CC(=O)O)CC1)C(=O)NCCc1ccccc1CC(=O)N[C@H](Cc1ccccc1)C(=O)N[C@@H](CCC(N)=O)C(=O)N[C@@H](Cc1c[nH]c2ccccc12)C(=O)N[C@@H](C)C(=O)N[C@H](C(=O)NCC(=O)N[C@@H](Cc1c[nH]cn1)C(=O)N[C@@H](CC(C)C)[C@@H](O)CC(=O)N[C@@H](CC(C)C)C(N)=O)C(C)C [[^68Ga]Ga-NOTA-oET-RM26, metal not drawn] (Ac-K(NOTA)[X1][dF]QWAVGH[Sta]L-NH2) | -0.97 ± 0.01 | 0.54 ± 0.01 %ID/g | 0.31 ± 0.04 %ID/g | 0.44 ± 0.04 %ID/g | 0.33 ± 0.07 %ID/g | 4.1 ± 1.1 %ID | 3.1 ± 1.8 %ID | 5.9 ± 0.5 %ID | 3.5 ± 0.7 %ID | 5.9 ± 0.6 %ID/g | 3.3 ± 2.3 %ID/g | 1.9 ± 0.2 %ID/g | 1.3 ± 0.1 %ID/g | 0.45 ± 0.27 %ID/g | 0.37 ± 0.02 %ID/g | 0.15 ± 0.01 %ID/g | 0.15 ± 0.13 %ID/g | 11.7 ± 2.4 %ID/g | 1.2 ± 0.2 %ID/g | 2.4 ± 0.4 %ID/g | tissue uptake at 2 h [3, 24]: 0.33 ± 0.24 %ID/g; tissue uptake at 2 h [3, 25]: 0.46 ± 0.06 %ID/g; tissue uptake at 2 h [3, 26]: 0.28 ± 0.07 %ID/g; tissue uptake at 2 h [3, 27]: 2.6 ± 0.6 %ID/g; tissue uptake at 2 h [3, 28]: 0.55 ± 0.19 %ID/g; tissue uptake dose at 2 h [3, 29]: 16.3 ± 1.6 %ID; tissue uptake dose at 2 h [3, 30]: 8.5 ± 3 %ID; tissue uptake at 2 h [3, 31]: 11.2 ± 3.4 %ID/g; tissue uptake at 2 h [3, 32]: 1.3 ± 0.2 %ID/g; remaining at 1 h, 1 µM [4]: 95 ± 2.9%; Stability in PBS with EDTA [4]: 92.6 ± 4.7
